Experimental data taken from the supplement of paper PMC6965134.
± gives the standard deviation of the averaged measurements.

Experiment: TIMS collisional cross section (CCS, N2) of the lipid ion; higher = larger ion cross section
Settings: ionization mode: positive, one isomer drawn

| TIMS collisional cross section (sample type: HeLa) [Å²] | TIMS collisional cross section (sample type: plasma) [Å²] | TIMS collisional cross section (sample type: Liver) [Å²] | SMILES |
| --- | --- | --- | --- |
| 285.8 | 286.4 | – | CCCCC/C=C\C/C=C\C/C=C\C/C=C\CCCC(=O)O[C@H](COC(=O)CCCCCCC/C=C\CCCCCC)COP(=O)([O-])OCC[N+](C)(C)C [PC 16:1_20:4] (ion (formula + adduct): [C44H78NO8P+H] 1+) |
| – | 279 | – | CCCCC/C=C\C/C=C\C/C=C\CCCCC(=O)O[C@H](COC(=O)CCCCCCCCCCCCCCCCC)COP(=O)(O)OCCN [PE 18:0@_18:3] (ion (formula + adduct): [C41H76NO8P+H] 1+) |
| 305.7 | 304.9 | – | CC/C=C\C/C=C\C/C=C\C/C=C\C/C=C\C/C=C\CCC(=O)O[C@H](COCCCCCCCCCCCCCCCCCCCC)COP(=O)([O-])OCC[N+](C)(C)C [PC O- 20:0@_22:6] (ion (formula + adduct): [C50H90NO7P+H] 1+) |
| 265.2 | 265.9 ± 0.71 | 265.5 | CCCCCCCC/C=C\CCCCCCCC(=O)OC[C@H](CO)OC(=O)CCCCCCC/C=C\CCCCCCCC [DG 18:1_18:1_0:0] (ion (formula + adduct): [C39H72O5+NH4] 1+) |
| 227.3 ± 1.3 | 226.96 ± 1.1 | 227.6 ± 1.3 | CCCCCCCCCCCCC/C=C/C=C/C(=O)OC[C@@H](O)COP(=O)([O-])OCC[N+](C)(C)C [LPC 18:2_0:0] (ion (formula + adduct): [C26H50NO7P+H] 1+) |
| – | – | 274.3 | CCCCC/C=C\C/C=C\C/C=C\C/C=C\CCCC(=O)O[C@@H](CO)COC(=O)CCCCCCCCCCCCCCCCCC [DG 19:0_20:4_0:0] (ion (formula + adduct): [C42H74O5+NH4] 1+) |
| 290.2 | – | 290.9 | CC/C=C\C/C=C\C/C=C\C/C=C\C/C=C\CCCC(=O)O[C@H](COC(=O)CCCCCCCCC/C=C\CCCCCC)COP(=O)([O-])OCC[N+](C)(C)C [PC 18:1@_20:5] (ion (formula + adduct): [C46H80NO8P+H] 1+) |
| – | – | 296.3 | CCCC/C=C\CCCCCCCC(=O)OC[C@H](COC(=O)CCCCCCC/C=C\C/C=C\CCCCC)OC(=O)CCCCCCC/C=C\CCCC [TG 14:1_14:1_18:2] (ion (formula + adduct): [C49H86O6+NH4] 1+) |
| – | – | 282.8 | CC/C=C\C/C=C\C/C=C\C/C=C\C/C=C\CCCC(=O)O[C@H](COC(=O)CCCCCCC/C=C\CCCCCC)COP(=O)([O-])OCC[N+](C)(C)C [PC 16:1@_20:5] (ion (formula + adduct): [C44H76NO8P+H] 1+) |
| – | – | 273.9 | CCCCC/C=C\C/C=C\C/C=C\C/C=C\CCCC(=O)O[C@H](CO/C=C\CCCCCCCCCCCCCC)COP(=O)(O)OCCN [PE P- 16:0@_20:4] (ion (formula + adduct): [C41H74NO7P+H] 1+) |
| – | 330.6 | – | CCCCCCCC/C=C\CCCCCCCC(=O)OC[C@@H](COC(=O)CCCCCCCCCCCCCCCCC)OC(=O)CCCCCCCCCCCCCCCCC [TG 18:0_18:0_18:1] (ion (formula + adduct): [C57H108O6+NH4] 1+) |
| – | – | 269.9 | CC/C=C\C/C=C\C/C=C\CCCCCCCC(=O)O[C@H](COC(=O)CCCCCCCCCCCCCCC)COP(=O)(O)OCCN [PE 16:0_18:3@] (ion (formula + adduct): [C39H72NO8P+H] 1+) |
| – | 321.2 | – | CCCCC/C=C\C/C=C\C/C=C\C/C=C\CCCC(=O)OC[C@@H](COC(=O)CCCCCCCCCCCCCCC)OC(=O)CCCCCCC/C=C\C/C=C\CCCCC [TG 16:0_18:2_20:4] (ion (formula + adduct): [C57H98O6+NH4] 1+) |
| – | 283.6 | – | CCCCC/C=C\C/C=C\C/C=C\CCCCC(=O)O[C@H](COC(=O)CCCCCCC/C=C\C/C=C\CCCCC)COP(=O)([O-])OCC[N+](C)(C)C [PC 18:2_18:3] (ion (formula + adduct): [C44H78NO8P+H] 1+) |
| – | 317.6 | – | CC/C=C\C/C=C\C/C=C\CCCCCCCC(=O)OC[C@@H](COC(=O)CCCCCCC/C=C\C/C=C\CCCCC)OC(=O)CCCCCCC/C=C\C/C=C\CCCCC [TG 18:2_18:2_18:3] (ion (formula + adduct): [C57H96O6+NH4] 1+) |
| – | 210.9 | – | C[C@H](CO)CC[C@H](O)[C@@H](C)[C@H]1CC[C@H]2[C@@H]3CC=C4C[C@@H](O)CC[C@]4(C)[C@H]3CC[C@]12C [Dormatinol] (ion (formula + adduct): [C27H46O3+H] 1+) |
| 337.8 | – | – | CCCCCCCC/C=C\CCCCCCCCCCCC(=O)OC[C@@H](COC(=O)CCCCCCC/C=C\CCCCCCCC)OC(=O)CCCCCCC/C=C\CCCCCCCC [TG 18:1_18:1_22:1] (ion (formula + adduct): [C61H112O6+NH4] 1+) |
| 283 | 282.9 | 281.3 ± 0.57 | CCCCCCCCCCCCCC(=O)OC[C@@H](COC(=O)CCCCCCCCCCC)OC(=O)CCCCCCCCCCC [TG 12:0_12:0_14:0] (ion (formula + adduct): [C41H78O6+NH4] 1+) |

| TIMS collisional cross section (sample type: HeLa) [Å²] | TIMS collisional cross section (sample type: plasma) [Å²] | TIMS collisional cross section (sample type: Liver) [Å²] | SMILES |
| --- | --- | --- | --- |
| – | 293.8 | – | CCCC/C=C\CCCCCCCC(=O)O[C@@H](COC(=O)CCCCCCC/C=C\C/C=C\CCCCC)COC(=O)CCCCCCCCCCC [TG 12:0_14:1_18:2] (ion (formula + adduct): [C47H84O6+NH4] 1+) |
| 318.5 | – | 317.3 | CC/C=C\C/C=C\C/C=C\C/C=C\C/C=C\C/C=C\CCC(=O)OC[C@@H](COC(=O)CCCCCCC/C=C\CCCCCC)OC(=O)CCCCCCC/C=C\CCCCCC [TG 16:1_16:1_22:6] (ion (formula + adduct): [C57H94O6+NH4] 1+) |
| – | 271.1 | – | CC/C=C\C/C=C\C/C=C\C/C=C\C/C=C\CCCC(=O)O[C@@H](CO)COC(=O)CCCCCCC/C=C\CCCCCCCC [DG 18:1_20:5_0:0] (ion (formula + adduct): [C41H68O5+H] 1+) |
| – | – | 231.3 | CC(C)(O)CCC(=O)[C@](C)(O)[C@H]1[C@H](O)C[C@@]2(C)[C@@H]3CC=C4[C@@H](C[C@@H](O)[C@@H](O)C4(C)C)[C@]3(C)C(=O)C[C@]12C [Cucurbitacin P] (ion (formula + adduct): [C30H48O7+H] 1+) |
| 286.4 | – | – | CC/C=C\C/C=C\C/C=C\C/C=C\C/C=C\CCCC(=O)O[C@H](COC(=O)CCCCCCC/C=C\CCCCCCC)COP(=O)([O-])OCC[N+](C)(C)C [PC 17:1@_20:5] (ion (formula + adduct): [C45H78NO8P+H] 1+) |
| – | – | 291.3 | CCCCCCCC/C=C\CCCCCCCC(=O)OC[C@@H](COC(=O)CCCCCCCCCCC)OC(=O)CCCCCCCCCCC [TG 12:0_12:0_18:1] (ion (formula + adduct): [C45H84O6+NH4] 1+) |
| 326.4 | 326.1 | – | CCCCCCCCCCCCCCCCCCCC(=O)OC[C@@H](COC(=O)CCCCCCCCCCCCC)OC(=O)CCCCCCCCCCCCCCCCC [TG 14:0_18:0_20:0] (ion (formula + adduct): [C55H106O6+NH4] 1+) |
| – | – | 295.2 | CCCCCCCC/C=C\CCCCCCCCCC(=O)O[C@H](COC(=O)CCCCCCCCCCCCCCC)COP(=O)([O-])OCC[N+](C)(C)C [PC 16:0_20:1@] (ion (formula + adduct): [C44H86NO8P+H] 1+) |
| – | – | 290.3 | CCCCC/C=C\C[C@H](O)/C=C/C=C\C/C=C\CCCC(=O)O[C@H](COC(=O)CCCCCCCCCCCCCCC)COP(=O)([O-])OCC[N+](C)(C)C [Oxidized PC 16:0_20:4@] (ion (formula + adduct): [C44H80NO9P+H] 1+) |
| 276.3 | – | – | CCCCCCCCCCCCCCC(=O)O[C@H](COC(=O)CCCCCCCCCCCCC)COP(=O)([O-])OCC[N+](C)(C)C [PC 14:0_15:0] (ion (formula + adduct): [C37H74NO8P+H] 1+) |
| – | – | 284.2 | CCCCC/C=C\C/C=C\CCCCCCCC(=O)OC[C@H](COP(=O)(O)OCCN)OC(=O)CCCCCCCCC/C=C\CCCCCCCC [PE 18:2_20:1] (ion (formula + adduct): [C43H80NO8P+Na] 1+) |
| – | 292.8 | – | CCCCC/C=C\C/C=C\C/C=C\C/C=C\CCCC(=O)O[C@H](COC(=O)CCCC/C=C\C/C=C\C/C=C\CCCCC)COP(=O)([O-])OCC[N+](C)(C)C [PC 18:3@_20:4] (ion (formula + adduct): [C46H78NO8P+H] 1+) |
| – | – | 322.8 | CCCCC/C=C\C/C=C\C/C=C\C/C=C\CCCC(=O)OC[C@@H](COC(=O)CCCCCCC/C=C\CCCCCCC)OC(=O)CCCCCCC/C=C\C/C=C\CCCCC [TG 17:1_18:2_20:4] (ion (formula + adduct): [C58H98O6+NH4] 1+) |
| 324.8 | – | – | CC/C=C\C/C=C\C/C=C\C/C=C\C/C=C\C/C=C\CCC(=O)OC[C@@H](COC(=O)CCCCCCCCCCCCCCC)OC(=O)CCCCCCC/C=C\CCCCCCC [TG 16:0_17:1_22:6] (ion (formula + adduct): [C58H98O6+NH4] 1+) |
| 279.6 | – | – | CC/C=C\C/C=C\C/C=C\C/C=C\C/C=C\C/C=C\CCC(=O)O[C@H](COCCCCCCCCCCCCCCCC)COP(=O)(O)OCCN [PE O- 16:0@_22:6] (ion (formula + adduct): [C43H76NO7P+H] 1+) |
| – | – | 278.7 | CCCCC/C=C\C/C=C\C/C=C\CCCCC(=O)O[C@H](COC(=O)CCCCCCCCCCCCCCCCC)COP(=O)(O)OCCN [PE 18:0_18:3@] (ion (formula + adduct): [C41H76NO8P+H] 1+) |
| – | – | 312.6 | CCCCC/C=C\C/C=C\CCCCCCCC(=O)OC[C@@H](COC(=O)CCCCCCCCCCCCCC)OC(=O)CCCCCCCCCCCCCCC [TG 15:0_16:0_18:2] (ion (formula + adduct): [C52H96O6+NH4] 1+) |
